Common to all, as to assay: Test of antibacterial activity in vitro (bacteria-inhibition zone)
What all share (format): cell-based

For one assay, the system named is Candida mycoderma. The text has this: (§1) Test of Antibacterial Activity In Vitro
(§2) Experiment drugs: the polyene diester compounds prepared by examples 1-12
(§3) Control drugs: amphotericin B (standard product) • mycostatin (standard product) • natamycin (standard product)
2.3 Preparation of Candida mycoderrna suspension: the method is as same as preparation of Saccharomyces cerevisiae suspension
(§4) Taking appropriate amount of the above mentioned amphotericin B, mycostatin, natamycin and the polyene diester compounds prepared by examples 1-8 and 10-12, dissolving in a little dimethyl sulfoxide respectively, using pH7 phosphate buffer to dilute into solution which is equivalent to contain amphotericin B, mycostatin, natamycin 280 Units per milliliter, taking 1 ml and using pH7 phosphate buffer to quantitatively dilute into solution which is equivalent to contain amphotericin B 1.4 μg/ml and 2.8 μg/ml, and is equivalent to contain 5.6 μg/ml of mycostatin and natamycin.
(§5) In addition, preparing the solution according to the same method, adding 40% defibered sheep serum, using pH7 phosphate buffer to quantitatively dilute into unit solution which is equivalent to contain amphotericin B 1.4 μg/ml and 2.8 μg/ml, and is equivalent to contain 5.6 μg/ml of mycostatin and natamycin. Testing according to PHARMACOPOEIA OF THE PEOPLES REPUBLIC OF CHINA, second part, 2005 edition, appendix XIA The Antibiotics Microorganism Test.
(§6) Medium: Improved Martin Agar Medium, PHARMACOPOEIA OF THE PEOPLES REPUBLIC OF CHINA, second part, 2005 edition, appendix p 84.
(§7) Test method: Double-plate counting method; […] bacteria bed 15 ml to replace the double layers, culture temperature: 37° C., time: 24 h; strain concentration: 1%
(§8) Medium: Modified Martin Broth Medium

Another assay has as its system Candida albicans.
Excerpt: as §1, §2, §3
2.1 Preparation of Candida albicans suspension: PHARMACOPOEIA OF THE PEOPLES REPUBLIC OF CHINA, second part, 2005 edition, appendix p 81-84.
as §4, §5, §6
Test method: Double-plate counting method; […] bacteria bed 15 ml to replace the double layers, culture temperature: 37° C., time: 24 h; strain concentration: 1% […]

Another assay concerns Saccharomyces cerevisiae.
Excerpt: as §1, §2, §3
2.2 Preparation of Saccharomyces cerevisiae suspension: PHARMACOPOEIA OF THE PEOPLES REPUBLIC OF CHINA, second part, 2005 edition, appendix p 80, p 83.
as §4, §5, §6, §7, §8

Where [1] appears, read: 2.8 μg/ml after conversion, no serum.
Setting [2] is: 2.8 μg/ml after conversion, serum added (40% defibered sheep serum).
[3] abbreviates: 5.6 μg/ml after conversion, no serum.
[4] abbreviates: 5.6 μg/ml after conversion, serum added (40% defibered sheep serum).

From US8217013B2, “Polyene diester antibiotics” (priority 2007, dated 2012) come the findings set out here.

For “amphotericin B-1, 3-2H-3-oxo-1-isobenzofuran ester”, in the assay on Candida mycoderma (setting [1]), the “diameter of the bacteria-inhibition zone, Candida mycoderma 0 h” value was “++ (9-12 mm: ++)”; the “diameter of the bacteria-inhibition zone, Candida mycoderma 6 h” value was “++ (9-12 mm: ++)”; the “diameter of the bacteria-inhibition zone, Candida mycoderma 24 h” value is on record as “++ (9-12 mm: ++)”; the “diameter of the bacteria-inhibition zone, Candida mycoderma 48 h” value is given as “++ (9-12 mm: ++)”. Besides, the “diameter of the bacteria-inhibition zone, Candida mycoderma 0 h” value in the assay with Candida mycoderma (setting [2]) is “++ (9-12 mm: ++)”. Moreover, in the assay with Candida albicans (setting [1]), the “diameter of the bacteria-inhibition zone, Candida albicans 0 h” value is “+ (7-9 mm: +)”; the “diameter of the bacteria-inhibition zone, Candida albicans 6 h” value is on record as “+ (7-9 mm: +)”; the “diameter of the bacteria-inhibition zone, Candida albicans 24 h” value is “+ (7-9 mm: +)”; the “diameter of the bacteria-inhibition zone, Candida albicans 48 h” value is reported as “+ (7-9 mm: +)”. In the assay on Candida albicans (setting [2]), the “diameter of the bacteria-inhibition zone, Candida albicans 0 h” value was “+ (7-9 mm: +)” and the “diameter of the bacteria-inhibition zone, Candida albicans 6 h” value is “++ (9-12 mm: ++)”. In addition, in the assay on Saccharomyces cerevisiae (setting [1]), the “diameter of the bacteria-inhibition zone, Saccharomyces cerevisiae 0 h” value is “++ (9-12 mm: ++)”; the “diameter of the bacteria-inhibition zone, Saccharomyces cerevisiae 6 h” value was “++ (9-12 mm: ++)”; the “diameter of the bacteria-inhibition zone, Saccharomyces cerevisiae 24 h” value is recorded as “++ (9-12 mm: ++)”; the “diameter of the bacteria-inhibition zone, Saccharomyces cerevisiae 48 h” value is listed as “++ (9-12 mm: ++)”. Also, in the assay on Saccharomyces cerevisiae (setting [2]), the “diameter of the bacteria-inhibition zone, Saccharomyces cerevisiae 0 h” value is “++ (9-12 mm: ++)”.

In the case of mycostatin ethyl acetate, in the assay with Candida mycoderma (setting [3]), the “diameter of the bacteria-inhibition zone, Candida mycoderma 0 h” value is reported as “++ (9-12 mm: ++)”; the “diameter of the bacteria-inhibition zone, Candida mycoderma 6 h” value is “++ (9-12 mm: ++)”; the “diameter of the bacteria-inhibition zone, Candida mycoderma 24 h” value was “++ (9-12 mm: ++)”; the “diameter of the bacteria-inhibition zone, Candida mycoderma 48 h” value was “++ (9-12 mm: ++)”. The “diameter of the bacteria-inhibition zone, Candida mycoderma 0 h” value in the assay on Candida mycoderma (setting [4]) is given as “++ (9-12 mm: ++)”. In the assay on Candida albicans (setting [3]), the “diameter of the bacteria-inhibition zone, Candida albicans 0 h” value is “+ (7-9 mm: +)”; the “diameter of the bacteria-inhibition zone, Candida albicans 6 h” value is reported as “+ (7-9 mm: +)”; the “diameter of the bacteria-inhibition zone, Candida albicans 24 h” value was “+ (7-9 mm: +)”; the “diameter of the bacteria-inhibition zone, Candida albicans 48 h” value is on record as “+ (7-9 mm: +)”. In the assay on Candida albicans (setting [4]), the “diameter of the bacteria-inhibition zone, Candida albicans 0 h” value was “+ (7-9 mm: +)”; the “diameter of the bacteria-inhibition zone, Candida albicans 6 h” value is reported as “+ (7-9 mm: +)”; the “diameter of the bacteria-inhibition zone, Candida albicans 24 h” value is “+ (7-9 mm: +)”; the “diameter of the bacteria-inhibition zone, Candida albicans 48 h” value is given as “+ (7-9 mm: +)”. In the assay with Saccharomyces cerevisiae (setting [3]), the “diameter of the bacteria-inhibition zone, Saccharomyces cerevisiae 0 h” value is recorded as “++ (9-12 mm: ++)”; the “diameter of the bacteria-inhibition zone, Saccharomyces cerevisiae 6 h” value is given as “++ (9-12 mm: ++)”; the “diameter of the bacteria-inhibition zone, Saccharomyces cerevisiae 24 h” value is on record as “++ (9-12 mm: ++)”; the “diameter of the bacteria-inhibition zone, Saccharomyces cerevisiae 48 h” value is “++ (9-12 mm: ++)”. Further, the “diameter of the bacteria-inhibition zone, Saccharomyces cerevisiae 0 h” value with Saccharomyces cerevisiae (setting [4]) is listed as “++ (9-12 mm: ++)”.

As to mycostatin methyl pivalate, in the assay with Candida mycoderma (setting [4]), the “diameter of the bacteria-inhibition zone, Candida mycoderma 0 h” value is reported as “+ (7-9 mm: +)” and the “diameter of the bacteria-inhibition zone, Candida mycoderma 6 h” value is listed as “++ (9-12 mm: ++)”. Besides, in the assay with Candida albicans (setting [3]), the “diameter of the bacteria-inhibition zone, Candida albicans 0 h” value is recorded as “+ (7-9 mm: +)”; the “diameter of the bacteria-inhibition zone, Candida albicans 6 h” value is “+ (7-9 mm: +)”; the “diameter of the bacteria-inhibition zone, Candida albicans 24 h” value is on record as “+ (7-9 mm: +)”; the “diameter of the bacteria-inhibition zone, Candida albicans 48 h” value is on record as “+ (7-9 mm: +)”. For the same substance, in the assay with Candida albicans (setting [4]), the “diameter of the bacteria-inhibition zone, Candida albicans 0 h” value is “+ (7-9 mm: +)”; the “diameter of the bacteria-inhibition zone, Candida albicans 6 h” value was “+ (7-9 mm: +)”; the “diameter of the bacteria-inhibition zone, Candida albicans 24 h” value is listed as “+ (7-9 mm: +)”; the “diameter of the bacteria-inhibition zone, Candida albicans 48 h” value is given as “+ (7-9 mm: +)”. Further, in the assay on Saccharomyces cerevisiae (setting [3]), the “diameter of the bacteria-inhibition zone, Saccharomyces cerevisiae 0 h” value was “++ (9-12 mm: ++)”; the “diameter of the bacteria-inhibition zone, Saccharomyces cerevisiae 6 h” value is recorded as “++ (9-12 mm: ++)”; the “diameter of the bacteria-inhibition zone, Saccharomyces cerevisiae 24 h” value is “++ (9-12 mm: ++)”; the “diameter of the bacteria-inhibition zone, Saccharomyces cerevisiae 48 h” value is “++ (9-12 mm: ++)”. In the assay with Saccharomyces cerevisiae (setting [4]), the “diameter of the bacteria-inhibition zone, Saccharomyces cerevisiae 0 h” value was “+ (7-9 mm: +)” and the “diameter of the bacteria-inhibition zone, Saccharomyces cerevisiae 6 h” value is reported as “++ (9-12 mm: ++)”.
